According to ChEMBL document CHEMBL4622837, “Finding the mechanism of esterase D activation by a small molecule” (Bioorg Med Chem Lett, 2020):
Activity calls are given as the source filed them. The rule behind the calls is not given here.

Tests used:
[1] = target: T1, S-formylglutathione hydrolase (Homo sapiens) (UniProt P10768); assay: Activation of human ESD expressed in HEK293T cells transfected with pEGFP-N1 assessed as induction of protein mono ubiquitination at 5 uM after 3 hrs by immunoblotting analysis; type: cell-based; details: HEK-293T
T1 sequence (whole entry): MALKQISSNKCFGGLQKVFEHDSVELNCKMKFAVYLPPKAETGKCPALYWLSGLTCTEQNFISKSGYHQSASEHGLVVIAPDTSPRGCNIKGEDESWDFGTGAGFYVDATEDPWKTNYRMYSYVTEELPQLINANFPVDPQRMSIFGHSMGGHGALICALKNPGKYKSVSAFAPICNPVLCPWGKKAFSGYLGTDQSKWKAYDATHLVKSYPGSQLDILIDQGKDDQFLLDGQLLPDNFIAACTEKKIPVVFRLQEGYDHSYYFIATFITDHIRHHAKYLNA

HeLa [2] = assay: Activation of ESD K180A mutant (unknown origin) expressed in human HeLa cells transfected with p-EGFP at 0.1 uM; type: cell-based
HeLa [3] = assay: Activation of ESD K213A mutant (unknown origin) expressed in human HeLa cells transfected with p-EGFP at 0.1 uM; type: cell-based
[4] = target: T1, S-formylglutathione hydrolase (Homo sapiens); assay: Activation of human ESD expressed in HEK293T cells transfected with pEGFP-N1 assessed as protein redistribution in cytoplasm by fluorescence microscopic analysis; type: cell-based; details: HEK-293T
HEK-293T [5] = assay: Inhibition of IgG binding to ESD K213A mutant (unknown origin) expressed in HEK293T cells; type: cell-based; details: Homo sapiens
[6] = target: T1, S-formylglutathione hydrolase (Homo sapiens); assay: Activation of ESD in human L02 cells at 0.1 to 1 uM after 24 hrs; type: cell-based
HEK-293T [7] = assay: Activation of ESD K213A mutant (unknown origin) expressed in HEK293T cells transfected with p-EGFP assessed as induction of protein mono ubiquitination at 0.1 to 1 uM measured up to 24 hrs by immunoblotting analysis; type: cell-based; details: Homo sapiens
[8] = target: T2, S-formylglutathione hydrolase (Homo sapiens, UniProt P10768); assay: Binding affinity to human ESD expressed in HEK293T cells assessed as dissociation constant; type: cell-based, HEK-293T
T2 sequence (P10768 whole entry): T1 sequence (whole entry)

[9] = target: T1, S-formylglutathione hydrolase (Homo sapiens); assay: Activation of human ESD expressed in HEK293T cells transfected with pEGFP-N1 assessed as induction of protein mono ubiquitination at 1 to 5 uM after 6 hrs by immunoblotting analysis; type: cell-based; details: HEK-293T
HEK-293T [10] = assay: Inhibition of IgG binding to ESD K180A mutant (unknown origin) expressed in HEK293T cells; type: cell-based; details: Homo sapiens
[11] = target: T1, S-formylglutathione hydrolase (Homo sapiens); assay: Inhibition of IgG binding to ESD in human L02 cells by immuno precipitation assay; type: cell-based
[12] = target: T1, S-formylglutathione hydrolase (Homo sapiens); assay: Inhibition of IgG binding to human ESD expressed in HEK293T cells; type: cell-based; details: HEK-293T
HEK-293T [13] = assay: Activation of ESD K213A mutant (unknown origin) expressed in HEK293T cells transfected with p-EGFP assessed as increase in protein mono ubiquitination at 0.1 to 1 uM measured up to 36 hrs by Western blot analysis; type: cell-based; details: Homo sapiens
HEK-293T [14] = assay: Activation of ESD K180A mutant (unknown origin) expressed in HEK293T cells transfected with p-EGFP assessed as increase in protein mono ubiquitination at 0.1 to 1 uM measured up to 36 hrs by Western blot analysis; type: cell-based; details: Homo sapiens
[15] = target: T1, S-formylglutathione hydrolase (Homo sapiens); assay: Activation of wild type human ESD expressed in HEK293T cells assessed as increase in protein mono ubiquitination at 0.1 to 1 uM incubated for 12 hrs by Western blot analysis; type: cell-based; details: HEK-293T
[16] = target: T1, S-formylglutathione hydrolase (Homo sapiens); assay: Activation of human ESD expressed in HEK293T cells transfected with pEGFP-N1 at 0.1 uM after 24 hrs; type: cell-based; details: HEK-293T
HEK-293T [17] = assay: Activation of ESD K180A mutant (unknown origin) expressed in HEK293T cells transfected with p-EGFP assessed as protein mono ubiquitination at 0.1 to 1 uM measured up to 24 hrs by Western blot analysis; type: cell-based; details: Homo sapiens
[18] = target: T1, S-formylglutathione hydrolase (Homo sapiens); assay: Activation of human ESD expressed in HEK293T cells transfected with pEGFP-N1 assessed as compound co-localization with protein by fluorescence microscopic analysis; type: cell-based; details: HEK-293T
[19] = target: T2, S-formylglutathione hydrolase; assay: Binding affinity to human ESD expressed in HEK293T cells assessed as dissociation rate constant; type: cell-based; details: hek-293t
[20] = target: T1, S-formylglutathione hydrolase (Homo sapiens); assay: Binding affinity to human ESD expressed in HEK293T cells assessed as association rate constant; type: cell-based; details: HEK-293T
HeLa [21] = assay: Activation of ESD K180A mutant (unknown origin) expressed in human HeLa cells transfected with p-EGFP assessed as compound co-localization with protein by fluorescence microscopic analysis; type: cell-based
HeLa [22] = assay: Activation of ESD K213A mutant (unknown origin) expressed in human HeLa cells transfected with p-EGFP assessed as protein co-localization by fluorescence microscopic analysis; type: cell-based
[23] = target: T1, S-formylglutathione hydrolase (Homo sapiens); assay: Activation of human ESD expressed in HEK293T cells transfected with pEGFP-N1 assessed as increase in protein mono ubiquitination at 0.1 to 5 uM after 12 to 24 hrs by immunoblotting analysis; type: cell-based; details: HEK-293T

Activity [1]: Active | Activity [4]: Active | Activity [6]: Active | Kd [8]: 0.8 nM | Activity [9]: Active | inhibition [11]: Dose-dependent effect | inhibition [12]: Dose-dependent effect | Activity [15]: Active | Activity [16]: Active | Activity [18]: Active | Kd [19]: 4.4 ×10⁻⁴ /s | Ka [20]: 5.2 ×10⁵ /M/s | Activity [23]: Active
Compound: Oc1ccc(Cl)cc1C1=NN(c2ccccn2)C(c2ccccc2)C1 (stereo not drawn)
Activity (HeLa [2]): inactive | Activity (HeLa [3]): inactive | inhibition (HEK-293T [5]): inactive | Activity (HEK-293T [7]): inactive | inhibition (HEK-293T [10]): inactive | Activity (HEK-293T [13]): inactive | Activity (HEK-293T [14]): inactive | Activity (HEK-293T [17]): inactive | Activity (HeLa [21]): inactive | Activity (HeLa [22]): inactive
